Test results reported in US8062607B2, “Lens care methods and kits” (Novartis AG, priority 2006, dated 2011).

Experiments:
[1] = Micro testing of dye in Aquify MPS as a stand alone solution; assay type: cell-based; details: dissolved in Aquify MPS
Description: FD&C Blue No 1, Sanolin Blue, and Remazol Blue dissolved in Aquify® MPS (CIBA Vision) are submitted for micro testing as a stand alone solution.

[2] = Colorant stability in lens care solution (visible spectrum); assay type: physicochemical; details: in Aquify MPS
Method: The colorant stability has also been tested for FD&C Blue No 1 in Aquify® MPS stored at 25° and 45° C. for 94 days. […] This gives us a shelf-life estimation based on colorant stability alone of approximately a year for FD&C Blue No 1 in Aquify® MPS. The colorant stability has also been tested for Vitosyn Blue in a lens care solution described above stored at 25° and 45° C. for 52 days. […] This gives a shelf life estimation based on colorant stability alone for approximately 7 months for Vitosyn Blue in the lens care solution.

## CCN(Cc1cccc(S(=O)(=O)[O-])c1)c1ccc(C(=C2C=CC(=[N+](CC)Cc3cccc(S(=O)(=O)[O-])c3)C=C2)c2ccccc2S(=O)(=O)[O-])cc1.[Na+].[Na+] [FD&C Blue No 1]
[1]
  micro testing as a stand alone solution: passes all micro testing
[2]
  shelf-life estimation based on colorant stability alone: approximately a year
[2]; 25° and 45° C., 94 days
  change of visible spectrum from time 0: has not changed significantly
